The source of these data is patent US11076595B2, “1-(n,n-disubstituted carbamoyl) 4-(substituted sulfonyl)triazolin-5-one derivative, 4-(n,n-disubstituted carbamoyl) 1-(substituted sulfonyl)triazolin-5-one derivative, and herbicide containing said derivative as active ingredient” (HOKKO CHEMICAL INDUSTRY CO., LTD., priority 2017, dated 2021).

SMILES strings stand for the structures.

Assay type in all cases: in vivo
The subject of experiment [1] is Scirpus juncoides. The experiment can be described thus: Test Example 1: herbicidal effect test by soil treatment in paddy field. The note with it: 120 g/10a, paddy soil treatment just after sowing, 14 days after treatment. From the text:
(§1) A Wagner pot having an area of 1/10000 are was filled with paddy field soil and after adding water, a chemical fertilizer (N:P:K=17:17:17) was mixed, followed by puddling. Thereafter, 30 grains of each of Echinochloa crus-galli, broad-leaved weed (Lindernia pyxidaria and Monochoria vaginalis) and Scirpus juncoides seeds were sown to a depth of 0 to 1 cm. Immediately after the sowing, the pot was flooded, and the depth of water was kept at about 3 cm. The pot was subsequently managed in a glass greenhouse. Just after that, an emulsifiable concentrate prepared according to Formulation Example 5 by using the compound shown in Table 5 below was diluted with water, and a predetermined amount of the water-diluted formulation was added dropwise. The application rate of the active ingredient, by conversion, corresponded to 120 g per 10 are.
(§2) This test was performed with two replications per one formulation concentration plot, and 14 days after the formulation treatments, the weed suppression rate (%) was determined according to the following equation (Math. 1). Weed suppression rate (%)=(1−an average dry weight (g) of plants in treated plots/an average dry weight (g) of plants in untreated plots)×100 [Math. 1]

The subject of experiment [2] is Echinochloa crus-galli. The experiment is described as above. The note with it: 120 g/10a, paddy soil treatment just after sowing, 14 days after treatment.
Source text: as §1, §2

Experiment [3] deals with Lindernia pyxidaria. Described as above. The note with it: 120 g/10a, paddy soil treatment just after sowing, 14 days after treatment.
Source text: as §1, §2

Experiment [4] deals with Monochoria vaginalis. The description is as above. The note with it: 120 g/10a, paddy soil treatment just after sowing, 14 days after treatment.
Source text: as §1, §2

Experiment [5] relates to Echinochloa crus-galli. The experiment can be described thus: Test Example 14: herbicidal effect test by foliage treatment in upland field. The note with it: 7 days after sowing, 120 g/10a, 14 days after treatment. The procedure, abridged: (§3)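 Dry-weight read-out: suppression (%) = (1 − mean treated dry weight/mean untreated dry weight)×100, at 14 days post-spray, two replicate plots per concentration. Spray applied 7 days after sowing, 120 g a.i. per 10 are.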

The subject of experiment [6] is Amaranthus viridis. The description is as above. The conditions noted are these: 7 days after sowing, 120 g/10a, 14 days after treatment. In a few lines:
as §3

The test system of experiment [7] is crabgrass. The description is as above. The conditions noted are these: 7 days after sowing, 120 g/10a, 14 days after treatment. In a few lines: as §3
The test system of experiment [8] is Chenopodium album. The experiment is described as above. The conditions noted are these: 7 days after sowing, 120 g/10a, 14 days after treatment. In a few lines: as §3
Experiment [9] concerns Scirpus juncoides. As to the kind of experiment: Test Example 12: herbicidal effect test by treatment during growing period in paddy field. The conditions noted are these: 120 g/10a; treatment seven days after sowing in flooded paddy pot; assessed 14 days after treatment. In a few lines: (§4)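 Puddled paddy soil in Wagner pots, 30 seeds per species sown 0-1 cm deep, flooded to about 3 cm in a greenhouse. Seven days after sowing, water-diluted emulsifiable concentrate was dripped in at 120 g active ingredient per 10 are. Suppression (%) from dry weight versus untreated at 14 days, two replicates.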

The subject of experiment [10] is Echinochloa crus-galli. The description is as above. The note with it: 120 g/10a; treatment seven days after sowing in flooded paddy pot; assessed 14 days after treatment. The procedure, abridged: as §4
Experiment [11] has as its system Lindernia pyxidaria. The description is as above. The conditions noted are these: 120 g/10a; treatment seven days after sowing in flooded paddy pot; assessed 14 days after treatment. The procedure, abridged:
as §4

Experiment [12] has as its system Monochoria vaginalis. The experiment is described as above. The note with it: 120 g/10a; treatment seven days after sowing in flooded paddy pot; assessed 14 days after treatment. The procedure, abridged: as §4
Experiment [13] concerns crabgrass. The experiment can be described thus: Test Example 13: herbicidal effect test by soil treatment in upland field. The conditions noted are these: 120 g/10a, 14 days after treatment. In a few lines:
(§5)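 Suppression rate (%) is calculated from mean plant dry weight in treated versus untreated plots, 14 days after treatment, with duplicate plots per concentration. Seeds (20 per species) are mixed into the surface centimetre of alluvial soil, and the diluted emulsifiable concentrate is sprayed onto the soil the following day at 120 g a.i. per 10 are.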

The subject of experiment [14] is Echinochloa crus-galli. The experiment is described as above. The note with it: 120 g/10a, 14 days after treatment. The procedure, abridged:
as §5

Experiment [15] relates to Amaranthus viridis. Described as above. The conditions noted are these: 120 g/10a, 14 days after treatment. In a few lines: as §5
Experiment [16] relates to Chenopodium album. Described as above. The note with it: 120 g/10a, 14 days after treatment. In a few lines: as §5
Experiment [17] relates to Scirpus juncoides. As to the kind of experiment: Test Example 11: herbicidal effect test by soil treatment in paddy field. The note with it: 120 g/10a active ingredient, 14 days after treatment. In a few lines:
(§6)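 Weed suppression rate (%) was calculated as (1 − mean treated dry weight / mean untreated dry weight) × 100 at 14 days after treatment, two replicates per plot. Seeds were sown at 0–1 cm in flooded (about 3 cm) puddled paddy soil and treated immediately at 120 g active ingredient per 10 are.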

Experiment [18] relates to Echinochloa crus-galli. The experiment is described as above. The conditions noted are these: 120 g/10a active ingredient, 14 days after treatment. The procedure, abridged: as §6
Experiment [19] concerns Lindernia pyxidaria. Described as above. The note with it: 120 g/10a active ingredient, 14 days after treatment. The procedure, abridged: as §6
For experiment [20], the system named is Monochoria vaginalis. The experiment is described as above. The note with it: 120 g/10a active ingredient, 14 days after treatment. The procedure, abridged: as §6

Take `CC(C)N(C(=O)n1ncn(S(=O)(=O)c2cccs2)c1=O)c1ccc(F)cc1F` [Compound 1-1060]: the “weed suppression rate, Scirpus juncoides” value in experiment [1] came to 90%. In [2], the “weed suppression rate, Echinochloa crus-galli” value turned out to be 90%. Besides, the “weed suppression rate, Lindemia pyxidaria” value in experiment [3] was 80%. In addition, in experiment [4], the “weed suppression rate, Monochoria vaginalis” value stood at 80%.

On to `CC(C)N(C(=O)n1cnn(S(=O)(=O)C2CCOCC2)c1=O)c1ccc(F)cc1F` [Compound 11-1109], for which the “herbicidal effect, Echinochloa crus-galli” value was 80% in [5] and 100% in [14]. The “herbicidal effect, Amaranthus viridis” value stood at 90% in experiment [6] and 100% in [15]. Further, the “herbicidal effect, Crabgrass” value came to 90% in experiment [7] and 100% in [13]. Moreover, the “herbicidal effect, Chenopodium album” value is listed as 80% in experiment [8] and 100% in experiment [16]. The “Weed suppression rate (%) Scirpus juncoides” value in experiment [9] and in experiment [17] was 90% throughout. Also, the “Weed suppression rate (%) Echinochloa crus-galli” value in [10] and in experiment [18] was 90% throughout. Moreover, the “Weed suppression rate (%) Lindemia pyxidaria” value in experiment [11] and in experiment [19] was 80% in each case. Besides, the “Weed suppression rate (%) Monochoria vaginalis” value in experiment [12] and in experiment [20] was 80% each time.

`CCS(=O)(=O)n1ncn(C(=O)N(c2cccc(F)c2F)C(C)C)c1=O` [Compound 11-1148]: the “herbicidal effect, Echinochloa crus-galli” value in experiment [5] and in [14] was 100% throughout. For the same molecule, the “herbicidal effect, Amaranthus viridis” value in experiment [6] worked out at 70%; in [15], 100%. Further, the “herbicidal effect, Crabgrass” value in experiment [7] and in [13] was 100% each time. The “herbicidal effect, Chenopodium album” value amounted to 80% in experiment [8] and 90% in experiment [16]. In addition, the “Weed suppression rate (%) Scirpus juncoides” value in experiment [9] and in [17] was 100% throughout. The “Weed suppression rate (%) Echinochloa crus-galli” value in [10] and in experiment [18] was 100% in each case. Further, the “Weed suppression rate (%) Lindemia pyxidaria” value worked out at 90% in [11] and 100% in experiment [19]. The “Weed suppression rate (%) Monochoria vaginalis” value in experiment [12] and in experiment [20] was 90% in each case.

As to `COc1ccc(S(=O)(=O)n2ncn(C(=O)N(c3cccc(F)c3F)C(C)C)c2=O)cc1` [Compound 11-1149], the “herbicidal effect, Echinochloa crus-galli” value in [5] and in experiment [14] was 70% each time. Also, the “herbicidal effect, Amaranthus viridis” value in experiment [6] and in experiment [15] was 30% throughout. The “herbicidal effect, Crabgrass” value in experiment [7] was determined as 80%; in experiment [13] it was 70%. Besides, the “herbicidal effect, Chenopodium album” value amounted to 70% in [8] and 30% in [16]. Further, the “Weed suppression rate (%) Scirpus juncoides” value in [9] and in [17] was 100% in each case. Moreover, the “Weed suppression rate (%) Echinochloa crus-galli” value in experiment [10] and in [18] was 100% in each case. For the same molecule, the “Weed suppression rate (%) Lindemia pyxidaria” value in [11] is reported as 80%; in [19], 100%. In addition, the “Weed suppression rate (%) Monochoria vaginalis” value in experiment [12] and in experiment [20] was 100% each time.

On to `CCS(=O)(=O)n1ncn(C(=O)N(c2c(F)cccc2F)C(C)C)c1=O` [Compound 11-1150], for which the “herbicidal effect, Echinochloa crus-galli” value in [5] and in [14] was 100% throughout. Moreover, the entries for the “herbicidal effect, Amaranthus viridis” value in experiment [6] and in experiment [15] were 50% and 90%, respectively. In addition, the “herbicidal effect, Crabgrass” value in experiment [7] and in experiment [13] was 100% each time. Also, the “herbicidal effect, Chenopodium album” value in experiment [8] is listed as 60%; in experiment [16], 80%. For the same molecule, the “Weed suppression rate (%) Scirpus juncoides” value in experiment [9] came to 60%; in [17] it was 90%. Moreover, the “Weed suppression rate (%) Echinochloa crus-galli” value in experiment [10] and in experiment [18] was 100% in each case. For the same molecule, the “Weed suppression rate (%) Lindemia pyxidaria” value in [11] and in experiment [19] was 100% each time. The “Weed suppression rate (%) Monochoria vaginalis” value in experiment [12] worked out at 90%; in [20] it was 70%.

As to `CCS(=O)(=O)n1ncn(C(=O)N(c2c(F)cc(F)cc2F)C(C)C)c1=O` [Compound 11-1154], the “herbicidal effect, Echinochloa crus-galli” value in [5] and in experiment [14] was 100% each time. For the same molecule, the “herbicidal effect, Amaranthus viridis” value in experiment [6] is 30%; in [15], 90%. The “herbicidal effect, Crabgrass” value in [7] and in experiment [13] was 100% in each case. In addition, the “herbicidal effect, Chenopodium album” value in experiment [8] and in experiment [16] was 80% each time. Besides, the “Weed suppression rate (%) Scirpus juncoides” value in [9] came to 80%; in [17] it was 100%. For the same molecule, the “Weed suppression rate (%) Echinochloa crus-galli” value in experiment [10] and in experiment [18] was 100% each time. The “Weed suppression rate (%) Lindemia pyxidaria” value in experiment [11] came to 80%; in experiment [19] it was 100%. The “Weed suppression rate (%) Monochoria vaginalis” value came out at 90% in experiment [12] and 100% in experiment [20].

`COc1ccc(S(=O)(=O)n2ncn(C(=O)N(c3c(F)cc(F)cc3F)C(C)C)c2=O)cc1` [Compound 11-1155]: the “herbicidal effect, Echinochloa crus-galli” value in experiment [5] and in [14] was 90% throughout. The “herbicidal effect, Amaranthus viridis” value in experiment [6] and in [15] was 30% in each case. For the same molecule, the results for the “herbicidal effect, Crabgrass” value in experiment [7] and in [13] were 100% and 90%, respectively. Also, the “herbicidal effect, Chenopodium album” value in experiment [8] stood at 60%; in [16], 30%. Moreover, the figures for the “Weed suppression rate (%) Scirpus juncoides” value in experiment [9] and in [17] were 90% and 100%, respectively. Also, the “Weed suppression rate (%) Echinochloa crus-galli” value in [10] and in experiment [18] was 100% each time. Moreover, the results for the “Weed suppression rate (%) Lindemia pyxidaria” value in [11] and in experiment [19] were 80% and 100%, respectively. Moreover, the “Weed suppression rate (%) Monochoria vaginalis” value worked out at 90% in experiment [12] and 80% in [20].
